Test results: patent US20250332170A1, “VANDETANIB REDUCES INFLAMMATORY CYTOKINES AND AMELIORATES COVID-19” (Collaborations Pharmaceuticals, Inc., priority 2021, published 2025)
“Also recorded” adds a separate entry of the source.

Tested on: Pseudo SARS-CoV-2 D614G
Assay type: cell-based

| SMILES | SARS-CoV-2 Spike protein-mediated entry, pseudovirus assay |
| --- | --- |
| CN1CCN(c2ccc(C(=O)Nc3n[nH]c4ccc(Cc5cc(F)cc(F)c5)cc34)c(NC3CCOCC3)c2)CC1 [Entrectinib] | no significant activity |
| COc1cc2c(Nc3ccc(Br)cc3F)ncnc2cc1OCC1CCN(C)CC1 [Vandetanib] | active; also recorded: decreased viral entry |
